Patent US7731945B2, “Immunotherapy for reversing immune suppression” (Immuno-Rx, Inc., priority 2001, dated 2010)

Experiments:
[1] = test system: endogenous suppression of T cells caused by cancer lesions; assay: NSAID codelivered for contrasuppression in the NCM regimen; assay type: in vivo, human; conditions: for effectiveness as NSAID for blocking endogenous suppression of T cells: codelivery with low dose cyclophosphamide and NCM
Source text: It is preferable to block endogenous suppression of T cells, such as caused by various cancer lesions. Blocking is effected by the codelivery of low dose cyclophosphamide and a nonsteroidal anti-inflammatory drug (NSAID). The NSAID of choice is indomethacin. […] Side effects of NSAIDs are to be aggressively treated with […] and a prostaglandin E analog. Zinc and multivitamins are useful agents to help restore T cell immunity. Treatment with contrasuppression and zinc without the NCM is ineffective.

T lymphocytes = assay: Cytokine induction by OKT-3 and/or PHA plus Ciprofloxacin, cells incubated in flasks; assay type: cell-based, human
Source text: The buffy coat white cells of human blood from multiple HIV-negative hepatitis virus-negative donors is collected. In an alternative embodiment, animals are the cell source for veterinary uses. The cells from the donors are pooled and layered on ficoll hypaque gradients (Pharmacia) to yield lymphocytes free of neutrophils and erythrocytes. Alternative methods could be used that would result in the same starting lymphocyte population as are known in the art.
The lymphocytes are washed and distributed in X vivo-10 media (Whittaker Bioproducts) to surface activated cell culture flasks for selection of cell subsets (MICROCELLECTOR™ T-25 Cell Culture Flasks), which contain immobilized stimulants, i.e., mitogens like PHA. In one set of experiments, X vivo-15 and X vivo-20 media were used as indicated. The immobilization process for the stimulants is as described by the manufacturer for immobilizing various substances for panning procedures, i.e., separating cells, in the flasks. Alternatively, the lymphocytes are exposed to stimulants e.g., PHA for 2-4 hours then washed three times.
The cells are incubated for 24 to 48 hours in X vivo-10 media with 80 μg/ml Ciprofloxacin (Miles Lab) at 37° in a CO2/air incubator. […] Generally, the HSA is used at 0.1 to 0.5% (weight by volume). Following incubation, the supernatants are poured off and collected. Human serum albumin (HSA) may be added to stabilize further the interleukins if HSA-free media is used for generations. The supernatants are store at 4° C. to −70°.

thymocyte and splenocyte = conditions: in vivo thymosin α1 5 μg/animal/day, NCM 50 units IL-2 equivalence; FIGS. 21, 22; cited from earlier work

Cc1ccc(-c2cc(C(F)(F)F)nn2-c2ccc(S(N)(=O)=O)cc2)cc1 [Celebrex®]
effectiveness as NSAID for blocking endogenous suppression of T cells [1]: less effective

CC(C)Cc1ccc(C(C)C(=O)O)cc1 (stereo not shown) [Ibuprofen]
histological responses ([1]; as NSAID of the regimen): characteristic of a TH2 rather than TH1 mediated response
effectiveness as NSAID for blocking endogenous suppression of T cells [1]: effective

CS(=O)(=O)c1ccc(C2=C(c3ccccc3)C(=O)OC2)cc1 [Vioxx®]
toxicity ([1]; as NSAID of the regimen): causing gastritis in many patients
effectiveness as NSAID for blocking endogenous suppression of T cells [1]: less effective

COc1ccc2c(c1)c(CC(=O)O)c(C)n2C(=O)c1ccc(Cl)cc1 [indomethacin]
toxicity ([1]; as NSAID of the regimen): arguably the most toxic
effectiveness as NSAID for blocking endogenous suppression of T cells [1]: most effective NSAID

OKT-3: monoclonal antibody (Ortho) which induces T lymphocytes to proliferate and produce interleukins
GM-CSF (T lymphocytes): 75 pg/mL
IFN-Y (T lymphocytes): 11280 pg/mL
IL-1-β (T lymphocytes): 1125 pg/mL
IL-6 (T lymphocytes): 1980 pg/mL
TNF-α (T lymphocytes): 2500 pg/mL

Thymosin α1
thymocyte and splenocyte in vitro responses to media, rIL-1, rIL-2 and NCM (thymocyte and splenocyte): increase many of the responses
